As usually defined, the IC50 is the concentration that gives 50% inhibition.

From ChEMBL document CHEMBL5126620, “Mapping the N-Terminal Hexokinase-I Binding Site onto Voltage-Dependent Anion Channel-1 To Block Peripheral Nerve Demyelination” (J Med Chem, 2022) come the findings set out here.

The nature of data set [1]: Inhibition of VDAC mediated mitochondrial Ca2+ release in HEK293 cells transfected with mitoGCaMP2. As to conditions: Homo sapiens. In kind it is cell-based.
For data set [2], the system named is HEK293. Put plainly: Inhibition of VDAC in mitochondria of HEK293 cells transfected with mitoGCaMP2 assessed as calcium efflux from mitochondria by measuring decrease in mitoGCaMP2 fluorescence at 6 mM by DAPI staining confocal imaging analysis. The conditions noted are these: Homo sapiens, time 30.0 min.
Data set [3] has as its system HEK293. Briefly: Inhibition of VDAC in mitochondria of HEK293 cells transfected with mitoGCaMP2 assessed as calcium efflux from mitochondria by measuring decrease in mitoGCaMP2 fluorescence at 33 uM by DAPI staining confocal imaging analysis. The conditions noted are these: Homo sapiens.
The test system of data set [4] is HEK293. Put plainly: Inhibition of VDAC in mitochondria of HEK293 cells transfected with mitoGCaMP2 assessed as calcium efflux by measuring mitoGCaMP2 fluorescence in cytoplasm at 33 uM by DAPI staining confocal imaging analysis. The conditions noted are these: Homo sapiens. Type of data set: subcellular.
Data set [5] can be described thus: Metabolic stability in rat serum assessed as parent compound remaining at 66.6 uM after 24 hr incubation by LC-MS analysis relative to control. The conditions noted are these: read-out: Stability. In kind it is ADME, cell-free.
Data set [6] is filed under the species Mus musculus. Briefly: Inhibition of demyelination in sciatic nerve explant C57BL6/J mouse model assessed as reduction in fiber damage level in serum free medium at 3 uM measured after 24 hrs by coherent anti Stokes raman scattering assay. In kind it is functional.
For data set [7], the species on record is Mus musculus. Briefly: Inhibition of demyelination in sciatic nerve explant C57BL6/J mouse model assessed as reduction in fiber damage level in serum containing medium at 3 uM measured after 24 hrs by coherent anti Stokes raman scattering assay. In kind it is functional.
A further data set is filed under the species Homo sapiens. Briefly: Inhibition of VDAC (unknown origin) mediated mitochondrial Ca2+ release at 100 uM.
A short description of data set [8]: Metabolic stability in rat serum assessed as parent compound remaining at 66.6 uM after 1 hr incubation by LC-MS analysis relative to control. The conditions noted are these: read-out: Stability. Type of data set: ADME, cell-free.

Activity calls are given as the source filed them. No cut-off for these calls is given here. Numbered stars: 1 amine (or outer) side, 2 acyl side, 3 side chain; on linkers, the order of the positions; unused ones are H or OH. Square brackets hold non-standard residues; d marks the D form. Peptide text beside a SMILES is read from it. * marks the point of attachment. X2 = CC(C)(C(=O)*)n1cc(-c2cccc(C(F)(F)F)c2)nn1; X1 = CC(=O)CCCC[C@H](N[*:1])C(=O)[*:2]; Aib = CC(C)(N)C(=O)O

The compound `CCCC[C@H](NC(=O)[C@H](CCC(N)=O)NC(=O)[C@@H]1CCCN1C(=O)[C@@H]1CCCN1C(=O)[C@H](CCCNC(=N)N)NC(=O)[C@H](CCCNC(=N)N)NC(=O)[C@H](CCCNC(=N)N)NC(=O)[C@H](CCC(N)=O)NC(=O)[C@H](CCCNC(=N)N)NC(=O)[C@H](CCCNC(=N)N)NC(=O)[C@H](CCCCN)NC(=O)[C@H](CCCCN)NC(=O)[C@H](CCCNC(=N)N)NC(=O)CNC(C)=O)C(=O)N[C@H](C(=O)N[C@@H](C)C(=O)N[C@@H](C)C(=O)N[C@@H](CCC(N)=O)C(=O)N[C@@H](CC(C)C)C(=O)N[C@@H](CC(C)C)C(=O)N[C@@H](C)C(=O)N[C@@H](Cc1ccc(O)cc1)C(=O)N[C@@H](Cc1ccc(O)cc1)C(=O)N[C@@H](Cc1ccccc1)C(=O)N[C@H](C(=O)N[C@@H](CCC(=O)O)C(=O)N[C@@H](CC(C)C)C(=O)N[C@@H](CCCCN)C(N)=O)[C@@H](C)O)[C@@H](C)CC` showed an IC50 in data set [1] of 13.9 µM.

In the case of `CC/C=C\C[C@H]1C(=O)CC[C@@H]1CC(=O)OC`, the inhibition entry in the data set on HEK293 [2], in the data set on HEK293 [3] and in the data set on HEK293 [4] was “Active” each time.

Consider `CC(=O)N[C@@H](C)C(=O)N[C@@H](CCC(N)=O)C(=O)N[C@@H](CC(C)C)C(=O)N[C@@H](CC(C)C)C(=O)NC(C)(C)C(=O)N[C@@H](Cc1ccc(O)cc1)C(=O)N[C@@H](Cc1ccc(O)cc1)C(=O)N[C@@H](Cc1ccccc1)C(=O)N[C@H](C(=O)N[C@@H](CCC(=O)O)C(=O)N[C@@H](CC(C)C)C(=O)N[C@@H](CCCCN)C(N)=O)[C@@H](C)O` (Ac-AQLL[Aib]YYFTELK-NH2), for which the remaining at 24 h, 66.6 µM in data set [5] was 65%.

Turning to `CC(=O)N[C@@H](C)C(=O)NC(C)(C)C(=O)N[C@@H](C)C(=O)NC(C)(C)C(=O)N[C@@H](C)C(=O)N[C@@H](CCC(N)=O)C(=O)N[C@@H](CC(C)C)C(=O)N[C@@H](CC(C)C)C(=O)NC(C)(C)C(=O)N[C@@H](Cc1ccc(O)cc1)C(=O)N[C@@H](Cc1ccc(O)cc1)C(=O)N[C@@H](Cc1ccccc1)C(=O)N[C@H](C(=O)N[C@@H](CCC(=O)O)C(=O)N[C@@H](CC(C)C)C(=O)N[C@@H](CCCCN)C(N)=O)[C@@H](C)O` (Ac-A[Aib]A[Aib]AQLL[Aib]YYFTELK-NH2), the remaining at 24 h, 66.6 µM in data set [5] was determined as 75%.

For `CC(=O)N[C@@H](C)C(=O)NC(C)(C)C(=O)N[C@@H](C)C(=O)NC(C)(C)C(=O)N[C@@H](C)C(=O)N[C@@H](CCC(N)=O)C(=O)N[C@@H](CC(C)C)C(=O)N[C@@H](CC(C)C)C(=O)NC(C)(C)C(=O)N[C@@H](Cc1ccc(O)cc1)C(=O)N[C@@H](Cc1ccc(O)cc1)C(=O)N[C@@H](Cc1ccccc1)C(=O)N[C@H](C(=O)N[C@@H](CCC(=O)O)C(=O)N[C@@H](CC(C)C)C(=O)N[C@@H](CCCCN)C(=O)NCC(=O)N[C@@H](CCCNC(=N)N)C(=O)N[C@@H](CCCCN)C(=O)N[C@@H](CCCCN)C(=O)N[C@@H](CCCNC(=N)N)C(=O)N[C@@H](CCCNC(=N)N)C(=O)N[C@@H](CCC(N)=O)C(=O)N[C@@H](CCCNC(=N)N)C(=O)N[C@@H](CCCNC(=N)N)C(=O)N[C@@H](CCCNC(=N)N)C(=O)N1CCC[C@H]1C(=O)N1CCC[C@H]1C(=O)N[C@@H](CCC(N)=O)C(N)=O)[C@@H](C)O` (Ac-A[Aib]A[Aib]AQLL[Aib]YYFTELKGRKKRRQRRRPPQ-NH2), the inhibition entry in the data set filed under Mus musculus [6] and in the data set listed under Mus musculus [7] was “Active” in each case.

For `CC[C@H](C)[C@H](NC(=O)[C@@H](N)CCCCC(C)=O)C(=O)N[C@@H](C)C(=O)N[C@@H](C)C(=O)N[C@@H](CCC(N)=O)C(=O)N[C@@H](CC(C)C)C(=O)N[C@@H](CC(C)C)C(=O)N[C@@H](C)C(=O)N[C@@H](Cc1ccc(O)cc1)C(=O)N[C@@H](Cc1ccc(O)cc1)C(=O)N[C@@H](Cc1ccccc1)C(=O)N[C@H](C(=O)N[C@@H](CCC(=O)O)C(=O)N[C@@H](CC(C)C)C(=O)N[C@@H](CCCCN)C(=O)NCC(=O)N[C@@H](CCCNC(=N)N)C(=O)N[C@@H](CCCCN)C(=O)N[C@@H](CCCCN)C(=O)N[C@@H](CCCNC(=N)N)C(=O)N[C@@H](CCCNC(=N)N)C(=O)N[C@@H](CCC(N)=O)C(=O)N[C@@H](CCCNC(=N)N)C(=O)N[C@@H](CCCNC(=N)N)C(=O)N[C@@H](CCCNC(=N)N)C(=O)N1CCC[C@H]1C(=O)N1CCC[C@H]1C(=O)N[C@@H](CCC(N)=O)C(N)=O)[C@@H](C)O` (H-[X1]IAAQLLAYYFTELKGRKKRRQRRRPPQ-NH2), the inhibition result in the data set filed under Homo sapiens, in the data set on HEK293 [3] and with HEK293 [4] was “Active” each time. In data set [1], this compound showed an IC50 of 15.6 µM.

Turning to `C[C@H](NC(=O)C(C)(C)n1cc(-c2cccc(C(F)(F)F)c2)nn1)C(=O)N[C@@H](CCC(N)=O)C(=O)N[C@@H](Cc1c[nH]c2ccccc12)C(=O)N[C@@H](Cc1c[nH]c2ccccc12)C(=O)NC(C)(C)C(=O)N[C@@H](Cc1ccc(O)cc1)C(=O)N[C@@H](Cc1ccc(O)cc1)C(=O)N[C@@H](Cc1ccccc1)C(=O)N[C@H](C(=O)N[C@@H](CCC(=O)O)C(=O)N[C@@H](Cc1c[nH]c2ccccc12)C(=O)N[C@@H](CCCCN)C(=O)NCC(=O)N[C@@H](CCCNC(=N)N)C(=O)N[C@@H](CCCCN)C(=O)N[C@@H](CCCCN)C(=O)N[C@@H](CCCNC(=N)N)C(=O)N[C@@H](CCCNC(=N)N)C(=O)N[C@@H](CCC(N)=O)C(=O)N[C@@H](CCCNC(=N)N)C(=O)N[C@@H](CCCNC(=N)N)C(=O)N[C@@H](CCCNC(=N)N)C(=O)N1CCC[C@H]1C(=O)N1CCC[C@H]1C(=O)N[C@@H](CCC(N)=O)C(N)=O)[C@@H](C)O` (X2-AQWW[Aib]YYFTEWKGRKKRRQRRRPPQ-NH2), the inhibition result in the data set listed under Mus musculus [6] and in the data set filed under Mus musculus [7] was “Active” each time.

In the case of Ac-AQLLAYYFTELK-NH2, the remaining at 1 h, 66.6 µM in data set [8] was 8%.

Ac-AQWWAYYFTEWK-NH2 yielded an IC50 in data set [1] of 3.6 µM.

Take Ac-AQWWAYYFTEWKGRKKRRQRRRPPQ-NH2: the inhibition entry in the data set filed under Mus musculus [6] is “Active”.
